The test system of assay [1] is UCP1. Briefly: UCP1 expression analysis (qPCR), long term versus short term SB431542 exposure during BA differentiation. Format: cell-based, human. As to conditions: continued use of SB431542 instead of removal in BAD2 medium. As to the method:
UCP1 expression analysis between long term (+SB) or short term (−SB) SB431542 exposure. Long term SB exposure includes SB431542 in the medium during the entire BA differentiation beginning immediately after plating dissociated paraxial mesoderm cells. Short term SB exposure includes SB431542 in the medium during only the first 8 days beginning immediately after plating dissociated paraxial mesoderm cells. Those samples marked “+FSK” received 10 μM Forskolin for 4 hours. Day numbers are the number of days after paraxial mesoderm differentiation. All samples are relative to iPSC using 18S rRNA as the endogenous control.
(§1) Brown adipocyte (BA) differentiation was accomplished using two sequential media formulations designated BAD1 and BAD2. BAs were derived by first dissociating the PM spheres into single-cell suspension. Briefly, PM spheres were removed from the suspension plates and allowed to gravity sediment in a conical tube. The medium was aspirated carefully and the spheres gently washed once with excess DPBS without calcium or magnesium. The spheres were allowed to settle and the DPBS aspirated. The spheres were resuspended in 5 mL of RT Accumax® (Innovative Cell Technologies, San Diego, CA) and placed on a single speed rotating mixer for 20-30 minutes until a single-cell suspension was achieved. […]

For assay [2], the system named is paraxial mesoderm cells. Briefly: Brown adipocyte differentiation of dissociated paraxial mesoderm cells in BAD1/BAD2 medium. Type of assay: cell-based, human. As to conditions: SB431542 included in BAD1 medium, 2D culture of dissociated paraxial mesoderm cells. As to the method: Proceeding from monolayer of pluripotent stem cells (PSC) to spherical culture (Sph) to primitive streak (PS) to paraxial mesoderm (PM). Cells are then dissociated and cultured in 2D in specific BAD1 medium that contains TGFβ signalling inhibitor, SB431542 which is an activin inhibitor. […] In a second step, cells are cultured in BAD2 medium allowing TGFβ signalling to be active as SB431542 is removed.
as §1, with “achieved. The cells were subsequently filtered through a 100 μm filter (ThermoFisher, Waltham, MA) into a 50 mL conical tube, washed with DPBS and centrifuged at 200 g for 4 minutes at RT; the resulting supernatant was aspirated and the cells resuspended in BAD1 medium for counting using a haemocytometer.” for “achieved.”

Assay [3] has as its system human brown adipocytes (hiPSC derived BA cells). Briefly: PET-SCAN imaging of labelled glucose in explanted devices from mice implanted with encapsulated human brown adipocytes. As to conditions: mice implanted with brown adipocytes and injected with FSK vs not stimulated; three weeks post-implantation. Format: in vivo. As to the method:
Two groups of mice were implanted with human brown adipocytes (hiPSC derived BA cells) produced by the methods of the present invention and encapsulated in a device subcutaneously. In one group, the mice were injected with forskolin (FSK) to stimulate the brown adipocytes. In the other group, the mice implanted with brown adipocytes were not stimulated by FSK. A control group of mice was implanted with an empty device. All groups were assessed after three weeks post-implantation for in vivo PET-SCAN imaging as well as ex vivo PET-SCAN imaging of the explanted device.

Assay [4] deals with human BA cells (hiPSC derived brown adipocytes). Briefly: Calorimetric/respiration measurements in mice implanted with human BA cells after NE stimulation. As to conditions: implanted with human BA cells vs empty devices, one week post-implantation. Format: in vivo.
Experimental: Measures of respiration quotient (DeltaVO2) of mice implanted with human BA cells (IBAT) or empty devices (EMPTY) treated with Norepinephrine (NE) for 1 hour. The mice are either surgically depleted for endogenous murine BA tissue (BATr) or treated at thermo-neutrality to inactivate the endogenous murine BA tissue (Therm). Calorimetric analyses were performed on group of mice implanted with encapsulated human brown adipocytes or empty devices. One group of mice was depleted of endogenous murine BA tissue by surgery and another group was maintained at thermoneutrality for inactivation of the endogenous murine BA tissue. The two groups were implanted with either human BA cells (hiPSC derived brown adipocytes) or empty devices. After one week post-implantation, each group of mice was stimulated with Norepinephrine (NE) (BA stimulation) to assess uncoupled respiration increase. The four sub-groups were analysed for calorimetry measurements as a readout of the respiration index induced by human brown adipocytes.

This is an account of results in patent US12129488B2, “Production of brown adipocytes” (SOCIETE DES PRODUITS NESTLE S.A., priority 2018, dated 2024).

Take `NC(=O)c1ccc(-c2nc(-c3ccc4c(c3)OCO4)c(-c3ccccn3)[nH]2)cc1` [SB431542]: the “kinetics of differentiation and UCP1 induction and expression” value in assay [1] is “retards proper kinetics and perturbs proper UCP1 induction and expression”. Further, the “appearance of vascular endothelium and cardiac myocyte development from contaminating lateral plate mesoderm” value in assay [2] is “reduces appearance of vascular endothelium and cardiac myocyte development”.

Regarding `C=C[C@@]1(C)CC(=O)[C@]2(O)[C@@]3(C)[C@@H](O)CCC(C)(C)[C@@H]3[C@H](O)[C@H](OC(C)=O)[C@@]2(C)O1` [FSK, forskolin], the “signal of labelled glucose, PET-SCAN imaging ex vivo” value in assay [3] is recorded as “increased signal of labelled glucose”.

On to `NC[C@H](O)c1ccc(O)c(O)c1` [NE, Norepinephrine], for which the “respiration index (calorimetry)” value is “slightly but not significantly improved” in assay [4] (mice at thermoneutrality) and “significant increased respiration index” in assay [4] (mice surgically depleted of endogenous murine BA tissue).
